Assay [1] concerns human penile resistance arteries (HPRA). Nature of the assay: Vascular reactivity of resistance penile arteries (myograph, isometric tension). How it is done: Penile small arteries, helicine arteries (lumen diameter 150-400 μm), which are the terminal branches of deep penile arteries, were dissected by carefully removing the adhering trabecular tissue, and arterial ring segments (of 2 mm length) were subsequently mounted on two 40 μm wires on microvascular double Halpern-Mulvany myographs (J.P. Trading, Aarhus, Denmark) for isometric tension recordings. The vascular segments were allowed to equilibrate for 30 min in physiological salt solution (PSS) of the following composition (each given in mM): 119 NaCl, 4.6 KCl; 1.5 CaCl2, 1.2 MgCl2, 24.9 NaHCO3, 11 Glucose, 1,2 KH2PO4, 0.027 EDTA in water at 37° C., continuously bubbled with a 95% O2/5% CO2 mixture to maintain a pH of 7.4. Passive tension and internal circumference of the vascular segments when relaxed in situ under a transmural pressure of […] (L100) were determined. The vascular segments were then set to an internal circumference eqivalent to 90% of L100, at which the force development was dose to maximal as described in Mulvany M J, Halpem W., “Contractile properties of small resistance arteries in spontaneously hypertensive and normotensive rats”, Circ. Res., 41, 19-26, 1977. The respective literature description is incorporated by reference and is part of the disclosure. The preparations were then exposed to 125 mM K^+ (KPSS, equimolar substitution of NaCl for KCl in PSS) and the contractile response was measured. The arteries were contracted with 1 μm norepinephrine (approximately 80% of KPSS induced contraction) and relaxation responses were evaluated by cumulative additions of compounds to the chambers.
Relaxation responses are expressed as percentage of total relaxation (loss in tone) induced by the addition of 0.1 mM papaverine HCl to the chambers at the end of the experiment. All data are expressed as mean±standard error. Complete concentration-response or frequency-response curves were obtained and compared by a two-factor analysis of variance (ANOVA) statistical test using StatView sotfware for Apple computers. Erectile responses were determined by measuring the area under the curve (AUC) of the intracavemosal pressure increases to rat cavernosal nerve stimulation normalized by mean arterial pressure values. The complete frequency-response curves were compared by a two-factor ANOVA test.

The subject of assay [2] is erectile responses (intracavernosal pressure) to cavernosal nerve stimulation. Briefly: Erectile responses to cavernosal nerve stimulation in anesthetized rats. Conditions: intravenous 10 mg/kg, stimulation 60 min after administration. It counts as in vivo, rat. How it is done:
Male Sprague-Dawley rats were anesthetized with ketamine (60 mg/kg). The surgical procedure consisted of dissection and isolation of the right cavernous nerve through an abdominal midline incision and exposure of penile crura through a transverse perineal incision. Intracavemosal pressure (ICP) measurements were accomplished by insertion into the right crus of a 23-gauge needle connected to a disposable pressure transducer (Abbott, Sligo, Ireland) and a data acquisition system (ADInstruments, Castle Hill, Australia). Left carotid artery and right external jugular vein were catheterized for constant blood pressure measurement and saline or drug infusion, respectively. Electrical stimulation was applied by a delicate platinum bipolar hook electrode connected to a stimulator and current amplifier (Cibertec, Madrid, Spain). Parameters of electrical stimulation consisted of pulses with a duration of 1 ms and 1.5 mA of current intensity for 1 minute. […]
Relaxation responses are expressed as percentage of total relaxation (loss in tone) induced by the addition of 0.1 mM papaverine HCl to the chambers at the end of the experiment. All data are expressed as mean±standard error. […] Erectile responses were determined by measuring the area under the curve (AUC) of the intracavemosal pressure increases to rat cavernosal nerve stimulation normalized by mean arterial pressure values. […]

These results are taken from patent US20070010581A1, “Use of 2,5-dihydroxybenzenesulfonic compounds for the treatment of disorders based on an impairment of no production and/or of regulation of edhf function” (priority 2002, published 2007).

With `O=S(=O)(O)c1cc(O)ccc1O` [calcium dobesilate, calcium dihydroxy-2,5 benzenesulfonate], the “effect on ACh-induced relaxation of HPRA” value in assay [1] (calcium dobesilate 10 μM) is “markedly potentiated”. Moreover, the “potentiation of ACh-induced relaxation of HPRA under combined inhibition of NOS and COX” value in assay [1] (calcium dobesilate 10 μM, combined inhibition of NOS and COX) was “not significantly affected”. In assay [1] (calcium dobesilate 10 μM, high potassium concentration (35 mM)), the “potentiation of ACh-induced relaxation of HPRA at high potassium concentration” value is “abolished”. In assay [1] (combination of APA (100 nM) and CTX (100 nM)), the “potentiating effects on ACh-induced relaxation of HPRA with APA and CTX” value is on record as “abolished the potentiating effects”. Besides, in assay [1] (miconazole (0.3 mM)), the “potentiating effects on ACh-induced relaxation of HPRA resistant to NOS and COX inhibition, with miconazole” value was “significantly reduced the potentiating effects”. Besides, the “erectile responses to cavernosal nerve stimulation” value in assay [2] is “significantly enhanced the erectile responses”.
